Experimental findings from patent US8951988B2, “Azidothymidine quinoline conjugated compound, preparation method therefor and application thereof in anti-hepatoma therapy” (Huazhong University of Science and Technology, priority 2012, dated 2015) are described below.

The subject of data set [1] is hepatoblastoma cell line HepG2. The data set can be described thus: MTT cell viability assay, HepG2. It is filed as cell-based, human. Particulars: MTT after 72 hours. As for the experimental part:
(§1) Cell culture: cancer cell lines HepG2 and Hep3B are obtained from ATCC (VA, USA), Human liver cells HL-7702 and murine liver cancer cells H22 are obtained from Shanghai Institute of Life Science Cell Culture Center (Shanghai, China). All the cells are maintained in high glucose DMEM or RPMI-1640 medium (Invitrogen, GA, USA) supplemented with 10% heat-inactivated fetal bovine serum (FBS), 25 mM HEPES, 2 mM L-glutamine, 0.1 mM nonessential amino acids, 1.0 mM sodium pyruvate, 50 U/mL penicillin, and 50 ug/ml streptomycin at 37° C. and 5% CO2.
(§2) Methods of cell viability assay: liver cells are seeded on 96-well plates, AZT-QX, Zidovudine, quinoline piperazine derivatives and doxorubicin are added in respectively, the concentration thereof are from 1 nM to […]. After 72 hours, an MTT assay is carried out to determine the cell viability [See method in: Zhou, et al. Chem. Res. Toxicol. 2008, 21, 732-738.].
(§3) Selective biological activity of AZT-QX is assessed using cell viability assays MTT on human liver carcinoma cells with hepatitis B Hep3B, hepatoblastoma cell line HepG2 and normal human liver cells HL-7702 (FIG. 3).
(§4) FIG. 3 illustrates determined cell viability of Hep3B hepatoma cells with hepatitis B, a HepG2 hepatoblastoma cell line and HL-7702 normal […] treated with AZT-QX (FIG. 3a), doxorubicin (FIG. 3b), Pip-QX (FIG. 3c), and Zidovudine (FIG. 3d).
In general terms: Formazan colour is commonly taken as a measure of viable cells.

In data set [2] the test system is human liver carcinoma cells with hepatitis B Hep3B. Put plainly: MTT cell viability assay, Hep3B. Format: cell-based. On the procedure: as §1, §2, §3, §4
For data set [3], the system named is hepatoma cells with hepatitis B. Put plainly: anti-BrdU fluorescence assay of nucleic acid synthesis, hepatoma cells. It is filed as cell-based. The source says: (§5) The anti-BrdU fluorescence assay is used to determine the nucleic acid synthesis in cells (FIG. 4).
(§6) FIG. 4 illustrates fluorescence images of an anti-BrdU assay of nucleic acid synthesis in cells. As shown in the figure, the green fluorescence illustrates the nucleic acid synthesis in cells, and the blue fluorescence illustrates the nuclear staining.

The test system of data set [4] is normal human liver cells HL-7702. The data set can be described thus: MTT cell viability assay, HL-7702. As to conditions: MTT after 72 hours. On the procedure: as §1, §2, §3, §4
The nature of data set [5]: body weight of mice in the H22 liver tumor model. Particulars: individual mice, 50 μM 100 μl on day 1 and day 7, in g (unit assumed).
From the text: Animal groups and drug administration: mice are divided into 3 groups once tumors reach an average size of 8.8×8.8 mm.
For another data set, the system named is H22 liver cancer cells. Put plainly: subcutaneous H22 liver tumor model in mice, tumor size and volume. It is filed as in vivo, BALB/c mice. As to conditions: for volume: individual mice, 50 μM 100 μl on day 1 and day 7. As for the experimental part:
The liver cancer tumor models are established by subcutaneously injecting H22 hepatoma cells. […] The further statistical analysis (see FIG. 6) confirms that as compared with the other two, AZT-QX has greater effectiveness p<0.01, and at a low dosage (0.13 mg/kg at a time, twice).
FIG. 6 illustrates the average growth of tumors in mice after administration and tumors in mice after 12 days, in which FIG. 6a is a figure of the average growth of tumors in mice; FIG. 6b is contrast of tumors in mice 12 days after different drug treatments. The control is a blank contrast, AZT is Zidovudine, AZT-QX is application of the compound of the invention.

The test system of data set [6] is normal liver cells HL-7702. Put plainly: anti-BrdU fluorescence assay of nucleic acid synthesis, normal liver cells. It is filed as cell-based, human.
From the text: as §5, §6

Values joined by “and” are separate entries in the source; they are usually repeats but may differ in a detail not shown here. Equal values may be shown once.

For `Cc1cn([C@H]2C[C@H](N=[N+]=[N-])[C@@H](CO)O2)c(=O)[nH]c1=O` [Zidovudine], the “toxicity to / killing of HepG2 cells (in words)” value in data set [1] is recorded as “no significant toxicity”. Besides, the “toxicity to / killing of Hep3B cells (in words)” value in data set [2] (MTT after 72 hours) is listed as “no significant toxicity”. Also, the “nucleic acid synthesis in hepatoma cells (green fluorescence)” value (shortened to “nucleic acid synthesis in hepatoma cells”) in data set [3] was “no effect in inhibiting nucleic acid synthesis”. Further, the “toxicity to normal liver cells HL-7702 (in words)” value in data set [4] is “no significant toxicity”. In addition, the BW in data set [5] (Day 1) is 26.9 and 29.9 and 31.9; in data set [5] (Day 2), 26.8 and 31.5 and 32; in data set [5] (Day 3) it was 26.8 and 31.5 and 31.8; in data set [5] (Day 4) it was 27.2 and 31.4 and 33; in data set [5] (Day 5), 27 and 31.3 and 32.7; in data set [5] (Day 6), 27.4 and 31.3 and 33.8. For the same compound, the BW in data set [5] (Day 7) was 26.9 and 31.5 and 33.5; in data set [5] (Day 8) it was 26.6 and 32.7 and 34.1; in data set [5] (Day 9) it was 27 and 33.3 and 34.2; in data set [5] (Day 10) it was 27 and 34.5 and 34.4; in data set [5] (Day 11), 27.7 and 36.6 and 35.1; in data set [5] (Day 12) it was 28.8 and 37.4 and 35.9. Also, the volume was 220.5 and 364.5 and 405 in the data set on H22 liver cancer cells (Day 1, in mm³ (unit assumed)); 245 and 550 and 405 with H22 liver cancer cells (Day 2, in mm³ (unit assumed)); 320 and 665.5 and 600 with H22 liver cancer cells (Day 3, in mm³ (unit assumed)); 650 and 726 and 786.5 in the data set with H22 liver cancer cells (Day 4, in mm³ (unit assumed)); 486 and 936 and 786.5 in the data set with H22 liver cancer cells (Day 5, in mm³ (unit assumed)); 1028.5 and 1183 and 1470 in the data set with H22 liver cancer cells (Day 6, in mm³ (unit assumed)). The volume in the data set on H22 liver cancer cells (Day 7, in mm³ (unit assumed)) is 1149.5 and 1687.5 and 1568; in the data set with H22 liver cancer cells (Day 8, in mm³ (unit assumed)), 1368 and 3402 and 2560; with H22 liver cancer cells (Day 9, in mm³ (unit assumed)) it was 1368 and 3610 and 3240; with H22 liver cancer cells (Day 10, in mm³ (unit assumed)), 1368 and 3790.5 and 4851; with H22 liver cancer cells (Day 11, in mm³ (unit assumed)) it was 1440 and 4400 and 5071.5; with H22 liver cancer cells (Day 12, in mm³ (unit assumed)), 1960 and 5292 and 4851.

Turning to `COc1cccc2c1C(=O)c1c(O)c3c(c(O)c1C2=O)C[C@@](O)(C(=O)CO)C[C@@H]3O[C@H]1C[C@H](N)[C@H](O)[C@H](C)O1` [doxorubicin], the “toxicity to normal liver cells HL-7702 (in words)” value in data set [4] was “more severe than to hepatoma cells”.

Take `CN1CCN(C(=O)Oc2ccc3c(c2)-c2nc4ccccc4nc2[C@@H]2C(C)(C)CCC[C@]32C)CC1` [pip-QX]: in data set [1], the “toxicity to / killing of HepG2 cells (in words)” value is reported as “killed all the liver cell lines non-selectively”. The “toxicity to / killing of Hep3B cells (in words)” value in data set [2] (MTT after 72 hours) is “killed all the liver cell lines non-selectively”. For the same compound, the “nucleic acid synthesis in hepatoma cells” value in data set [3] is given as “effect similar to AZT-QX”. The “toxicity to normal liver cells HL-7702 (in words)” value in data set [4] is given as “killed all the liver cell lines non-selectively”.

As for `Cc1cn([C@H]2C[C@H](n3cc(CNC(=O)CCCCCOc4ccc5c(c4)-c4nc6ccccc6nc4[C@@H]4C(C)(C)CCC[C@]54C)nn3)[C@@H](CO)O2)c(=O)[nH]c1=O` [AZT-QX, N-((1-(2-(hydroxymethyl)-5-(5-methyl-2,4-dioxo-3,4-dihydro-pyrimidin-1(2H)-yl)-tetrahydrofuran-3-yl)-1H-1,2,3-triazol-4-yl)methyl)-6-(4b,8,8-trimethyl-4-b,5,6,7,8,8a-hexahydrodibenzo[a,c]phenazin-2-yloxy)hexanamide], the “activity in combination with methotrexate” value in data set [2] (Hep3B cells, methotrexate added) was “additive effect”. For the same compound, the Hep3B cells killed in data set [2] (at 20 μM, MTT after 72 hours) was found to be 80%. Moreover, the “activity after selective inhibition of thymidine kinase by siRNA” value in data set [2] (hepatoma cells with hepatitis B, thymidine kinase siRNA) is reported as “decreased”. Besides, the “nucleic acid synthesis in hepatoma cells” value in data set [3] is reported as “effectively inhibits green fluorescence in hepatoma cells”. Besides, the “toxicity to human normal liver cells HL-7702 (in words)” value in data set [4] (at 200 μM) is listed as “no significant toxicity”. Besides, the “nucleic acid synthesis in normal liver cells HL-7702” value in data set [6] is “does not affect the nucleic acid synthesis”. In addition, the BW is 30.7 and 35.4 and 26.9 in data set [5] (Day 1); 31.7 and 36.3 and 27.7 in data set [5] (Day 2); 32 and 36 and 27.6 in data set [5] (Day 3); 32.5 and 37.1 and 28 in data set [5] (Day 4); 32.4 and 32.9 and 28.2 in data set [5] (Day 5); 32.2 and 37 and 28.1 in data set [5] (Day 6). Besides, the BW in data set [5] (Day 7) is 32 and 36.3 and 27.9; in data set [5] (Day 8), 33.2 and 36.6 and 28.7; in data set [5] (Day 9) it was 33.5 and 36.6 and 28.8; in data set [5] (Day 10), 34.1 and 36.7 and 28.7; in data set [5] (Day 11), 34.5 and 36.8 and 29; in data set [5] (Day 12), 35.8 and 37.9 and 29.5. Further, the volume with H22 liver cancer cells (Day 1, in mm³ (unit assumed)) was 256 and 288 and 500; in the data set with H22 liver cancer cells (Day 2), 364.5 and 288 (2×); with H22 liver cancer cells (Day 3, in mm³ (unit assumed)), 500 and 405 and 288; in the data set on H22 liver cancer cells (Day 4, in mm³ (unit assumed)) it was 500 and 364.5 and 405; in the data set on H22 liver cancer cells (Day 5, in mm³ (unit assumed)), 665.5 and 364.5 and 445.5; with H22 liver cancer cells (Day 6, in mm³ (unit assumed)), 936 and 405 and 550. The volume is 907.5 and 500 and 550 with H22 liver cancer cells (Day 7, in mm³ (unit assumed)); 1080 and 500 and 600 with H22 liver cancer cells (Day 8, in mm³ (unit assumed)); 1080 and 665.5 and 666 in the data set on H22 liver cancer cells (Day 9, in mm³ (unit assumed)); 1080 and 786.5 and 726 with H22 liver cancer cells (Day 10, in mm³ (unit assumed)); 1267.5 and 847 and 726 with H22 liver cancer cells (Day 11, in mm³ (unit assumed)); 1267.5 and 1008 and 726 in the data set on H22 liver cancer cells (Day 12, in mm³ (unit assumed)). In addition, in the data set with H22 liver cancer cells (injected intratumorally on day 1 and day 7, 100 μL), the “average tumor growth after 12 days (in words)” value was “inhibits tumor growth”.
